Laboratory results taken from paper PMC5471204, “Autotransporter domain-dependent enzymatic analysis of a novel extremely thermostable carboxylesterase with high biodegradability towards pyrethroid pesticides” (Scientific Reports, 2017).

Columns and labels:
[1] = tested on: T1, EstPS1; experiment: p-nitrophenol release at […] nm, Lineweaver-Burk; type: biochemical, Pseudomonas synxantha; conditions: 50 mM Tris-HCl pH 8.0, 60 °C
T1 construct: full-length ORF with signal peptide (24 residues) and autotransporter domain (357-640); N-terminal His-tag, pET-28a, E. coli BL21(DE3), Ni-NTA; 640 residues, 68 kDa

[2] = tested on: T1, EstPS1; experiment: pesticide hydrolysis, gas chromatography, Lineweaver-Burk; type: biochemical, Pseudomonas synxantha; conditions: 50 mM Tris-HCl pH 8.0, 40 °C (degradation assay); stated substrate range 10 to 500 μM
Excerpt: pesticide hydrolysis, gas chromatography, Lineweaver-Burk on EstPS1

Structure (SMILES)	Km [1]	Km [2]
CCCCCC(=O)Oc1ccc([N+](=O)[O-])cc1 [p-Nitrophenyl caproate]	76 ± 7 µM	–
CC1(C)C(C=C(Cl)Cl)C1C(=O)OC(C#N)c1cccc(Oc2ccccc2)c1 (stereo not drawn) [trans-Cypermethrin]	–	0.53 ± 0.028 µM
CCCC(=O)Oc1ccc([N+](=O)[O-])cc1 [p-Nitrophenyl butyrate]	43 ± 8 µM	–
CCCCCCCCCC(=O)Oc1ccc([N+](=O)[O-])cc1 [p-Nitrophenyl decanoate]	362 ± 13 µM	–
CC(C)C(C(=O)OC(C#N)c1cccc(Oc2ccccc2)c1)c1ccc(Cl)cc1 (stereo not drawn) [Fenvalerate]	–	0.84 ± 0.042 µM
Cc1c(COC(=O)[C@@H]2[C@H](/C=C(\Cl)C(F)(F)F)C2(C)C)cccc1-c1ccccc1 (racemic) [Bifenthrin]	–	1.25 ± 0.061 µM
CC1(C)C(C(=O)OC(C#N)c2cccc(Oc3ccccc3)c2)C1(C)C (stereo not drawn) [Fenpropathrin]	–	0.25 ± 0.014 µM
CNC(=O)Oc1cccc2ccccc12 [Carbaryl]	–	0.21 ± 0.01 µM
CCCCCCCCCCCC(=O)Oc1ccc([N+](=O)[O-])cc1 [p-Nitrophenyl laurate]	391 ± 9 µM	–
CC1(C)C(C=C(Cl)Cl)C1C(=O)OC(C#N)c1cccc(Oc2ccccc2)c1 (stereo not drawn) [cis-Cypermethrin]	–	0.62 ± 0.031 µM
CCCCCCCC(=O)Oc1ccc([N+](=O)[O-])cc1 [p-Nitrophenyl caprylate]	61 ± 10 µM	–
CC(=O)Oc1ccc([N+](=O)[O-])cc1 [p-Nitrophenyl acetate]	102 ± 12 µM	–
